Results on 3 compounds are retold here after ChEMBL document CHEMBL1123781, “Synthesis and biological properties of some 6H-pyrido[4,3-b]carbazoles” (1987).

Each structure is given as a SMILES string.

For assay [1], the system named is P388. Put plainly: Activity against P388 lymphocytic leukemia in BDFR-1 mice measured as median survival time (MST) after intraperitoneal administration of 5 mg/kg. In kind it is functional, Mus musculus.
Assay [2] deals with P388. Kind of assay: Activity against P388 lymphocytic leukemia in BDFR-1 mice measured as percent increase in lifespan (% ILS) relative to controls after intraperitoneal administration of 40 mg/kg. The format is functional. Conditions: Mus musculus, P388, ip.
Assay [3] has as its system HeLa. Kind of assay: Effect on [3H]thymidine incorporation by HeLa cells measured as percent incorporation compared to control 3 h after washing at a concentration of 25 ug/mL. In kind it is functional, Homo sapiens.
Assay [4] deals with P388. Kind of assay: Activity against P388 lymphocytic leukemia in BDFR-1 mice measured as percent increase in lifespan (% ILS) relative to controls after intraperitoneal administration of 80 mg/kg. The format is functional. Conditions: Mus musculus, P388, ip.
For assay [5], the system named is HeLa. Put plainly: Effect on [3H]thymidine incorporation by HeLa cells measured as percent incorporation compared to control in the presence of drug at a concentration of 25 ug/mL. In kind it is functional, Homo sapiens. (Dividing cells build labelled thymidine or BrdU into new DNA.)
In assay [6] the test system is P388. Put plainly: Activity against P388 lymphocytic leukemia in BDFR-1 mice measured as median survival time (MST) after intraperitoneal administration of 20 mg/kg. In kind it is functional, Mus musculus.
Assay [7] deals with HeLa. Put plainly: Effect on [3H]thymidine incorporation by HeLa cells measured as percent incorporation compared to control in the presence of drug at a concentration of 5 ug/mL. In kind it is functional, Homo sapiens.
Assay [8] relates to P388. Put plainly: Activity against P388 lymphocytic leukemia in BDFR-1 mice measured as percent increase in lifespan (% ILS) relative to controls after intraperitoneal administration of 10 mg/kg. In kind it is functional. Conditions: Mus musculus, P388, ip.
Assay [9] concerns P388. Put plainly: Activity against P388 lymphocytic leukemia in BDFR-1 mice measured as percent increase in lifespan (% ILS) relative to controls after intraperitoneal administration of 5 mg/kg. In kind it is functional. As to conditions: Mus musculus, P388, ip.
Assay [10] deals with P388. Kind of assay: Activity against P388 lymphocytic leukemia in BDFR-1 mice measured as median survival time (MST) after intraperitoneal administration of 10 mg/kg. In kind it is functional, Mus musculus.
The test system of assay [11] is P388. Put plainly: Activity against P388 lymphocytic leukemia in BDFR-1 mice measured as percent increase in lifespan (% ILS) relative to controls after intraperitoneal administration of 20 mg/kg. In kind it is functional. Conditions: Mus musculus, P388, ip.
The test system of assay [12] is P388. Put plainly: Activity against P388 lymphocytic leukemia in BDFR-1 mice measured as median survival time (MST) after intraperitoneal administration of 40 mg/kg. The format is functional, Mus musculus.
The test system of assay [13] is P388. Kind of assay: Activity against P388 lymphocytic leukemia in BDFR-1 mice measured as median survival time (MST) after intraperitoneal administration of 80 mg/kg. In kind it is functional, Mus musculus.
For assay [14], the system named is HeLa. Put plainly: Effect on [3H]-Thymidine incorporation by HeLa cells measured as percent incorporation compared to control 3 hr after washing at a concentration of 5 ug/mL. In kind it is functional, Homo sapiens.
Assay [15] relates to HeLa. Kind of assay: Effect on [3H]-Thymidine incorporation by HeLa cells measured as percent incorporation compared to control in the presence of drug at a concentration of 10 ug/mL. In kind it is functional, Homo sapiens.
The test system of assay [16] is HeLa. Kind of assay: Effect on [3H]-Thymidine incorporation by HeLa cells measured as percent incorporation compared to control in the presence of drug at a concentration of 5 ug/mL. The format is functional, Homo sapiens.
Assay [17] relates to HeLa. Put plainly: Effect on [3H]thymidine incorporation by HeLa cells measured as percent incorporation compared to control 3 h after washing at a concentration of 5 ug/mL. The format is functional, Homo sapiens.
Assay [18] has as its system HeLa. Put plainly: Effect on [3H]-Thymidine incorporation by HeLa cells measured as percent incorporation compared to control 3 hr after washing at a concentration of 25 ug/mL. The format is functional, Homo sapiens.
Assay [19] deals with HeLa. Kind of assay: Effect on [3H]-Thymidine incorporation by HeLa cells measured as percent incorporation compared to control 3 hr after washing at a concentration of 10 ug/mL. In kind it is functional, Homo sapiens.
Assay [20] deals with P388. Kind of assay: Activity against P388 lymphocytic leukemia in BDFR-1 mice measured as percent increase in lifespan (% ILS) relative to controls after intraperitoneal administration of 80 mg/kg; Toxic. Also noted: dose 80 mg/kg. The format is functional, organism-based. As to conditions: Mus musculus, at 80 mg/kg.
Assay [21] relates to P388. Put plainly: Activity against P388 lymphocytic leukemia in BDFR-1 mice measured as percent increase in lifespan (% ILS) relative to controls after intraperitoneal administration of 2.5 mg/kg. In kind it is functional. Conditions: Mus musculus, P388, ip.
The subject of assay [22] is P388. Put plainly: Activity against P388 lymphocytic leukemia in BDFR-1 mice measured as median survival time (MST) after intraperitoneal administration of 2.5 mg/kg. In kind it is functional, Mus musculus.

Consider `Cc1c2cnccc2c(CO)c2[nH]c3ccccc3c12`, for which the MST in the assay with P388 [1] amounted to 13; in the assay on P388 [6], 16.5; in the assay with P388 [10] it was 14.5; in the assay with P388 [12] it was 16.5; with P388 [13], 18. In addition, in the assay on P388 [2], the increase in life span (ILS) at 40 mg/kg amounted to 65%. Moreover, the Incorporation in the assay on HeLa [3] amounted to 52%; in the assay on HeLa [5] it was 22%; in the assay with HeLa [7], 67%; in the assay on HeLa [14], 88%. The ILS at 80 mg/kg in the assay on P388 [4] is 80%. The compound also had an ILS at 10 mg/kg in the assay on P388 [8] of 45%. The compound further came in with an increase in life span (ILS) at 5 mg/kg with P388 [9] of 30%. Further, the increase in life span (ILS) at 20 mg/kg with P388 [11] amounted to 65%.

For the compound `Cc1c2ccncc2c(C)c2c1[nH]c1ccccc12` [ELLIPTECINE], the Incorporation turned out to be 56% in the assay with HeLa [15]; 65% in the assay with HeLa [16]; 78% in the assay with HeLa [17]; 8% in the assay on HeLa [5]; 25% in the assay on HeLa [18]; 47% in the assay on HeLa [19]. In addition, the MST in the assay on P388 [1] came out at 12; in the assay with P388 [6], 13; in the assay with P388 [10], 13; in the assay on P388 [12], 16. In the assay on P388 [2], this compound had an ILS at 40 mg/kg of 60%. The same compound yielded an ILS at 10 mg/kg in the assay with P388 [8] of 30%. The ILS at 5 mg/kg in the assay with P388 [9] turned out to be 20%. In the assay on P388 [11], this compound came in with an ILS at 20 mg/kg of 30%.

Take `CNC(=O)OCc1c2ccncc2c(C)c2c1[nH]c1ccccc12`: in the assay with P388 [20], the ILS result was “Toxic”. Moreover, the MST in the assay with P388 [1] is given as 16; with P388 [6] it was 15; in the assay with P388 [22] it was 18; in the assay on P388 [10] it was 21; in the assay on P388 [12], 10; in the assay with P388 [13], 6. This compound also gave an ILS at 40 mg/kg in the assay with P388 [2] of 0%. Besides, the Incorporation with HeLa [3] was determined as 3%; with HeLa [5] it was 27%; with HeLa [7], 59%; with HeLa [14], 18%. For the same compound, in the assay on P388 [21], the ILS at 2.5 mg/kg was found to be 80%. In the assay with P388 [8], the increase in life span (ILS) at 10 mg/kg was 110%. For the same compound, in the assay with P388 [9], the ILS at 5 mg/kg came out at 60%. The same compound registered an increase in lifespan (ILS) at 20 mg/kg in the assay on P388 [11] of 50%.

Broadly, the ILS is the gain in survival time of treated over control animals, in per cent.
